For this test, the target named is T1, type-1 15-PGDH (Homo sapiens, UniProt P15428).
T1 construct: made in house
T1 sequence (P15428 1-266): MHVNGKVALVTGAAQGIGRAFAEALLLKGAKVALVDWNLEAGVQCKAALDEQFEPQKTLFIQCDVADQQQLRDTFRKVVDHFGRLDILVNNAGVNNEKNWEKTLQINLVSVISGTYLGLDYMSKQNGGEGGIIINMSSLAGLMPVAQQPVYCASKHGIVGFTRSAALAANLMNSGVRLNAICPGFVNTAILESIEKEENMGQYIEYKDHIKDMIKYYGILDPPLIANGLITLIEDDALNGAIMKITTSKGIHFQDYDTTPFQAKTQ
Nature of the test: Test on type-1 15-PGDH (spectrophotometric, 340 nm, PGE2 and β-NAD as substrates). The class given is biochemical. Particulars: 37° C.; for IC50: pH 7.4 Tris buffer, 50 μM Prostaglandin E2, 1.5 mM β-NAD. The procedure:
The enzyme 15-PGDH is obtained as described in patent application FR 02/05067 filed in the name of L'Oréal, as a suspension in a medium adjusted to a concentration of 0.3 mg/mL and then blocked at −80° C. For the purposes of the test, this suspension is thawed and stored in ice.
In parallel, a 100 mM, pH 7.4 Tris buffer containing 0.1 mM of dithiothreitol (D5545, Sigma-Aldrich, L'isle D'Abeau Chesne, BP 701, 38297, Saint Quentin Fallavier), 1.5 mM of β-NAD (N6522, Sigma-Aldrich, L'isle D'Abeau Chesne, BP 701, 38297, Saint Quentin Fallavier), and 50 μM of Prostaglandin E2 (P4172, Sigma-Aldrich, L'isle D'Abeau Chesne, BP 701, 38297, Saint Quentin Fallavier) is prepared.
0.965 ml of this buffer (brought to 37° C. beforehand) is introduced into the cuvette of a spectrophotometer (Perkin-Elmer, Lambda 2) thermostatically maintained at 37° C., the measuring wavelength of which is set at 340 nm. 0.035 mL of enzymatic suspension at 37° C. is introduced into the cuvette concomitantly with the recording (corresponding to an increase in the optical density at 340 nm). The maximum reaction rate is recorded.

As a reminder, the inhibition is the percentage by which the read-out fell short of the control. Consider `O=C1NC(=O)/C(=C/c2ccccc2Oc2ccc(F)cc2)S1` [Compound 6], for which the inhibition at 100 µM (at 100 μM of compound, pH 7.4, read-out: % inhibition of the enzymatic activity of 15-PGDH) turned out to be 48%.

Usually IC50 stands for the concentration needed to halve the response being measured. Low readings indicate higher potency, high ones lower potency. `O=C1NC(=O)/C(=C/c2ccccc2Oc2ccc(Br)cc2F)S1` [Compound 10] yielded an IC50 of 1.55 µM.

Regarding `CC(C)(C)c1ccc(Oc2cccc(/C=C3\SC(=O)NC3=O)c2)cc1` [Compound 16], the half-inhibitory concentration (IC50) amounted to 0.2 µM. Against the preceding compound, the IC50 is about 7.8-fold lower.

The values above are taken from patent publication US20070059265A1, “Benzylidene-1,3-thiazolidine-2,4-dione compounds for stimulating or inducing the growth and/or for reducing the loss and/or for increasing the density of keratin fibers” (L'OREAL, priority 2005, published 2007).
